How the values were obtained:
[1] = tested on: small cell lung cancer (SCLC), colon, breast and acute lymphoblastic leukemia (ALL) cancer xenografts; conditions: cited from earlier work
[2] = stability of APG-1252 during formulation preparation and lyophilization process (HPLC); format: physicochemical; conditions: final lyophilization product compared to original drug
Protocol: The contents of APG-1252 and its hydrolysis product BM-1244 were measured before and after formulation preparation and lyophilization process by method described above.

[3] = tested on: erythroleukemic HEL, megakaryoblastic leukemic SET-2 and Ruxolitinib resistant HEL cell line; test: cytotoxicity, CellTiter96 AQueous cell proliferation assay; format: cell-based; conditions: single drug, 72 h, HEL and SET-2 cell lines
Protocol: (§1) Cells were seeded in a 96 well plate with 3000 cells per well and culture for 24 h, the appropriate amount of drug in a serial dilution manner was added to each well. After incubation for 72 h, Cell Proliferation was detected by CellTiter96™ AQueous Nonradioactive Cell Proliferation Assay Kit.

[4] = tested on: mantle cell lymphoma (B cell non-Hodgkin's lymphoma) cell line Mino, and Z138 and Rec; test: as above; format: cell-based; conditions: single drug, 72 h
Protocol: as §1

[5] = tissue distribution of APG-1252 and BMS-1244 (FIG. 15); format: in vivo, CD-1 IGS mice; conditions: for 48 hours
Source text: The APG-1252 and BMS-1244 concentration versus time curve in different tissues in CD-1 IGS mice.

Row | Compound | combination with chemotherapeutic agents ([1]; in vivo) | tumor regression as single agent ([1]; twice weekly or weekly dose-schedule) | percentage of BM-1244 [2] | cytotoxicity alone [3] | cytotoxicity alone [4] | BMS-1244 relative to APG-1252 [5]
1 | Cc1c(S(C)(=O)=O)c(-c2cc(F)cc(N3CCN(c4ccc(NS(=O)(=O)c5ccc(N[C@H](CCN6CCC(C(=O)OCCCP(=O)(O)O)CC6)CSc6ccccc6)c(S(=O)(=O)C(F)(F)F)c5)cc4)CC3)c2)c(-c2ccc(Cl)cc2)n1C(C)C [APG-1252, (R)-(3-((1-(3-((4-(N-(4-(4-(3-(2-(4-chlorophenyl)-1-isopropyl-5-methyl-4-(methylsulfonyl)-1H-pyrrol-3-yl)-5-fluorophenyl)piperazin-1-yl)phenyl)sulfamoyl)-2-((trifluoromethyl)sulfonyl)phenyl)amino)-4-(phenylthio)butyl)piperidine-4-carbonyl)oxy)propyl)phosphonic acid] | strong synergy with the chemotherapeutic agents | complete and persistent tumor regression | 0.16% | similar | similar | 
2 | Cc1c(S(C)(=O)=O)c(-c2cc(F)cc(N3CCN(c4ccc(NS(=O)(=O)c5ccc(N[C@H](CCN6CCC(C(=O)O)CC6)CSc6ccccc6)c(S(=O)(=O)C(F)(F)F)c5)cc4)CC3)c2)c(-c2ccc(Cl)cc2)n1C(C)C [BM-1244, (R)-1-(3-((4-(N-(4-(4-(3-(2-(4-chlorophenyl)-1-isopropyl-5-methyl-4-(methylsulfonyl)-1H-pyrrol-3-yl)-5-fluorophenyl)piperazin-1-yl)phenyl)sulfamoyl)-2-((trifluoromethyl)sulfonyl)phenyl)amino)-4-(phenylthio)butyl)piperidine-4-carboxylic acid] |  |  |  |  |  | less than 10%

Reference: US20230025865A1, “COMPOSITIONS AND METHODS FOR […] […] OF Bcl-2 AND Bcl-xL ANTAGONISTS” (The Regents of the University of Michigan, priority 2019, published 2023)
